Results reported in ChEMBL document CHEMBL2069292, “Dammarane glycosides from the root of Machilus yaoshansis” (J Nat Prod, 2012).
Activity calls are given as the source filed them.

What was measured:
[1] = system: A549; test: Cytotoxicity against human A549 cells at 10 uM after 96 hrs by MTT assay; assay type: functional, cell-based
[2] = system: HCT-8; test: Cytotoxicity against human HCT8 cells at 10 uM after 96 hrs by MTT assay; assay type: functional, cell-based
[3] = system: Bel-7402; test: Cytotoxicity against human Bel7402 cells at 10 uM after 96 hrs by MTT assay; assay type: functional, cell-based
[4] = system: Peritoneal macrophage cell; test: Inhibition of LPS-induced TNFalpha secretion in C57BL/6J mouse peritoneal macrophages at 10 uM after 24 hrs; assay type: functional, cell-based
[5] = system: A2780; test: Cytotoxicity against human A2780 cells at 10 uM after 96 hrs by MTT assay; assay type: functional, cell-based
[6] = system: BGC-823; test: Cytotoxicity against human BGC823 cells at 10 uM after 96 hrs by MTT assay; assay type: functional, cell-based
[7] = target: T1, Tyrosine-protein phosphatase non-receptor type 1 (Homo sapiens) (UniProt P18031); test: Inhibition of human PTP1B at 10 uM
T1 sequence (whole entry): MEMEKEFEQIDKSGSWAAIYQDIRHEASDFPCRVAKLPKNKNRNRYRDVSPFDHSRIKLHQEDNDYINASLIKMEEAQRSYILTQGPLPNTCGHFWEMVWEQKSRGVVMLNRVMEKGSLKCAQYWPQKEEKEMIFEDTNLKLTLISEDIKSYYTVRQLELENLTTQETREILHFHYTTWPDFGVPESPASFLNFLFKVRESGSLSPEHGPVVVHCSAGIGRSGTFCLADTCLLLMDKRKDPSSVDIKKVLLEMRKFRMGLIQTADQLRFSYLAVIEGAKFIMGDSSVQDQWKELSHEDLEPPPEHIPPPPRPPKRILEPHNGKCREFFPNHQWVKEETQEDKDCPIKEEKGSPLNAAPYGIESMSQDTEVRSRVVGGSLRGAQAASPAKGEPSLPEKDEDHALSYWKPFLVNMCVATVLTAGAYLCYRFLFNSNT

CC(C)=CCC[C@@](O)(CO[C@@H]1O[C@H](CO[C@@H]2O[C@H](CO)[C@@H](O)[C@H](O)[C@H]2O)[C@@H](O)[C@H](O)[C@H]1O)[C@H]1CC[C@]2(C)[C@@H]1CC[C@@H]1[C@@]3(C)CC[C@H](O[C@@H]4O[C@H](CO)[C@@H](O)[C@H](O[C@@H]5OC[C@@H](O)[C@H](O)[C@H]5O)[C@H]4O[C@@H]4O[C@@H](C)[C@H](O)[C@@H](O)[C@H]4O)C(C)(C)[C@@H]3CC[C@]12C
inactive: Activity [1] | Activity [2] | Activity [3] | inhibition [4] | Activity [5] | Activity [6] | inhibition [7]

CC(C)=CCC[C@@](O)(CO[C@@H]1O[C@H](CO)[C@@H](O)[C@H](O)[C@H]1O)[C@H]1CC[C@]2(C)[C@@H]1CC[C@@H]1[C@@]3(C)CC[C@H](O[C@@H]4OC[C@H](O)[C@H](O[C@@H]5OC[C@@H](O)[C@H](O)[C@H]5O)[C@H]4O[C@@H]4O[C@@H](C)[C@H](O)[C@@H](O)[C@H]4O)C(C)(C)[C@@H]3CC[C@]12C
inactive: Activity [1] | Activity [2] | Activity [3] | inhibition [4] | Activity [5] | Activity [6] | inhibition [7]

CC(C)=CCC[C@@](O)(CO)[C@H]1CC[C@]2(C)[C@@H]1CC[C@@H]1[C@@]3(C)CC[C@H](O[C@@H]4OC[C@H](O)[C@H](O[C@@H]5OC[C@@H](O)[C@H](O)[C@H]5O)[C@H]4O[C@@H]4O[C@@H](C)[C@H](O)[C@@H](O)[C@H]4O)C(C)(C)[C@@H]3CC[C@]12C
inactive: Activity [1] | Activity [2] | Activity [3] | inhibition [4] | Activity [5] | Activity [6] | inhibition [7]

CC(C)=CCC[C@@](O)(CO[C@@H]1O[C@H](CO)[C@@H](O)[C@H](O)[C@H]1O)[C@H]1CC[C@]2(C)[C@@H]1CC[C@@H]1[C@@]3(C=O)CC[C@H](O[C@@H]4O[C@H](CO)[C@@H](O)[C@H](O[C@@H]5OC[C@@H](O)[C@H](O)[C@H]5O)[C@H]4O[C@@H]4O[C@@H](C)[C@H](O)[C@@H](O)[C@H]4O)C(C)(C)[C@@H]3CC[C@]12C
inactive: Activity [1] | Activity [2] | Activity [3] | inhibition [4] | Activity [5] | Activity [6] | inhibition [7]

CC(=O)OC[C@H]1O[C@@H](O[C@H]2CC[C@]3(C)[C@H]4CC[C@@H]5[C@@H]([C@](O)(CO)CCC=C(C)C)CC[C@@]5(C)[C@]4(C)CC[C@H]3C2(C)C)[C@H](O[C@@H]2O[C@@H](C)[C@H](O)[C@@H](O)[C@H]2O)[C@@H](O[C@@H]2OC[C@@H](O)[C@H](O)[C@H]2O)[C@@H]1O
inactive: Activity [1] | Activity [2] | Activity [3] | inhibition [4] | Activity [5] | Activity [6] | inhibition [7]

CC(C)=CCC[C@@](O)(CO)[C@H]1CC[C@]2(C)[C@@H]1CC[C@@H]1[C@@]3(C=O)CC[C@H](O[C@@H]4OC[C@H](O)[C@H](O[C@@H]5OC[C@@H](O)[C@H](O)[C@H]5O)[C@H]4O)C(C)(C)[C@@H]3CC[C@]12C
inactive: Activity [1] | Activity [2] | Activity [3] | inhibition [4] | Activity [5] | Activity [6] | inhibition [7]

CC(C)=C[C@@H]1C[C@](O)([C@H]2CC[C@]3(C)[C@@H]2CC[C@@H]2[C@@]4(C)CC[C@H](O[C@@H]5O[C@H](CO)[C@@H](O)[C@H](O[C@@H]6OC[C@@H](O)[C@H](O)[C@H]6O)[C@H]5O)C(C)(C)[C@@H]4CC[C@]23C)C(=O)O1
inactive: Activity [1] | Activity [2] | Activity [3] | inhibition [4] | Activity [5] | Activity [6] | inhibition [7]

CC(C)=C[C@H]1C[C@](O)([C@H]2CC[C@]3(C)[C@@H]2CC[C@@H]2[C@@]4(C)CC[C@H](O[C@@H]5OC[C@H](O)[C@H](O[C@@H]6OC[C@@H](O)[C@H](O)[C@H]6O)[C@H]5O[C@@H]5O[C@@H](C)[C@H](O)[C@@H](O)[C@H]5O)C(C)(C)[C@@H]4CC[C@]23C)C(=O)O1
inactive: Activity [1] | Activity [2] | Activity [3] | inhibition [4] | Activity [5] | Activity [6] | inhibition [7]

CC(C)=C[C@@H]1C[C@](O)([C@H]2CC[C@]3(C)[C@@H]2CC[C@@H]2[C@@]4(C)CC[C@H](O[C@@H]5OC[C@H](O)[C@H](O[C@@H]6OC[C@@H](O)[C@H](O)[C@H]6O)[C@H]5O[C@@H]5O[C@@H](C)[C@H](O)[C@@H](O)[C@H]5O)C(C)(C)[C@@H]4CC[C@]23C)C(=O)O1
inactive: Activity [1] | Activity [2] | Activity [3] | inhibition [4] | Activity [5] | Activity [6] | inhibition [7]
